Drawing on ChEMBL document CHEMBL1201862, “PubChem BioAssay data set” (2004), this text covers IC50, EC50 and AC50 for 1 molecule.

Structures are written as SMILES. Activity calls are given as the source filed them.

The subject of assay [1] is HEK293. As to the kind of experiment: cells. Format: functional, cell-based. Particulars: Homo sapiens.
The subject of assay [2] is HEK293. As to the kind of experiment: cells. The conditions noted are these: Homo sapiens.
Assay [3] relates to HEK293. The experiment in a line: cells. The conditions noted are these: Homo sapiens. The source holds these as a separate data set.
The target of assay [4] is T1, Nuclear receptor subfamily 0 group B member 1 (Homo sapiens, UniProt P51843).
T1 sequence (P51843 whole entry): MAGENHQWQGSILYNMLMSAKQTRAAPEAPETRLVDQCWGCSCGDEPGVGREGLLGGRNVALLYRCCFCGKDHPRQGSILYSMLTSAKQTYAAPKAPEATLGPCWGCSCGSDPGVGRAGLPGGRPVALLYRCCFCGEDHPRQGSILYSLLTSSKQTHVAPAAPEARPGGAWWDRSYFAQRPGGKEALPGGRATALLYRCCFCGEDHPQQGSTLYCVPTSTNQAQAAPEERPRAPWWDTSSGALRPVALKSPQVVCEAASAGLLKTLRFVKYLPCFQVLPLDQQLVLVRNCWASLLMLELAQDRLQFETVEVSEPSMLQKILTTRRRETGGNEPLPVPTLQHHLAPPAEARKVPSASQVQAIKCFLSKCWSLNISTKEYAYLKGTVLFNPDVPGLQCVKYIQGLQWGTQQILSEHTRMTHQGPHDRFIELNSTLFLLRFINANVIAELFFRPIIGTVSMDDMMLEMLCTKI
As to the kind of experiment: Luminescence-based cell-based high throughput dose response assay for inhibitors of the orphan nuclear receptor subfamily 0, group B, member 1 (DAX1; NR0B1). [Related pubchem assays (depositor defined):AID504766, AID504790]. Format: functional.

Assay [5] addresses T2, DNA repair and recombination protein RAD54-like (Homo sapiens, UniProt Q92698).
T2 sequence (Q92698 whole entry): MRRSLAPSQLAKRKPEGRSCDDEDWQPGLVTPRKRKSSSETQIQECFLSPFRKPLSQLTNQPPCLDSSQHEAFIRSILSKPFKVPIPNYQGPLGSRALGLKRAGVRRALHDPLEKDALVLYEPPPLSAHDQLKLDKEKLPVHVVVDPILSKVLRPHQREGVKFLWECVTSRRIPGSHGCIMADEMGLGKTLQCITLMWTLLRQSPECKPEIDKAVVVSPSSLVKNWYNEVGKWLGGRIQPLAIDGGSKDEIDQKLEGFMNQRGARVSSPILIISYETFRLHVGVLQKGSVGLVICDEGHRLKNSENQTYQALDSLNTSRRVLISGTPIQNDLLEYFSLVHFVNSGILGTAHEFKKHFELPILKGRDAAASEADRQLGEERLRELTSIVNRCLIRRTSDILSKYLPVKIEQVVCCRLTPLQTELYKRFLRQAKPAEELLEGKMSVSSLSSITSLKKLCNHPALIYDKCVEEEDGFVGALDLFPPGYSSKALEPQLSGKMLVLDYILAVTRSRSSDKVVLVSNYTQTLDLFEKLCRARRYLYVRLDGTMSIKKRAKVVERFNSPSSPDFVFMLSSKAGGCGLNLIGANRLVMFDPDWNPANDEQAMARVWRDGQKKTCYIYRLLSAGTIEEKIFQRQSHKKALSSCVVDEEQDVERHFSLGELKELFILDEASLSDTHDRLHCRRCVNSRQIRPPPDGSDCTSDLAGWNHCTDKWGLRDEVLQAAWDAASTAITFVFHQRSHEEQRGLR
The experiment in a line: RAD54 Holliday junction migration blockers – biochemical, fluorescence, cherry-picked samples, dose series, confirmation (AID 651657). Format: functional.

The nature of assay [6]: acridine orange displacement from DNA – biochemical, fluorescence polarization, cherry-pick, artefact control for RAD54 inhibitor project, dose response (AID 651673). Format: functional.
The target in assay [7] is T3, DNA repair protein RAD52 homolog (Homo sapiens, UniProt P43351).
T3 sequence (P43351 whole entry): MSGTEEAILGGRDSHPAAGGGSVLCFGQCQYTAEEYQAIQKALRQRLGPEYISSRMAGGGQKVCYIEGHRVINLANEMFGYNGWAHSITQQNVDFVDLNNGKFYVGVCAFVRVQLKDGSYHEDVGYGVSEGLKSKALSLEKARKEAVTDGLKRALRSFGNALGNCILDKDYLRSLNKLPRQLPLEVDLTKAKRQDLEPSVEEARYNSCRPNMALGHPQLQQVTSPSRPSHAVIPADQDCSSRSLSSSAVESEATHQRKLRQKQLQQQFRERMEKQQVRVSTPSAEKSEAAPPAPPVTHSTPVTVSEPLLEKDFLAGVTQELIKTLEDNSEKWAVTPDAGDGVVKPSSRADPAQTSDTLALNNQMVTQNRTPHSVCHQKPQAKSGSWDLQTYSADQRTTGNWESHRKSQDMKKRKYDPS
The class given is functional, biochemical.

As to `COc1cc2c3c(cccc3c1)C(=O)N(CCN1CCCC1)C2=O`, the IC50 (with HEK293 [1]; in assay [4]) was > 67.6 µM (inactive) in each case. In addition, the EC50 with HEK293 [2] and in the assay on HEK293 [3] was > 59.7 µM (inactive) each time. The AC50 in assay [5] is 2.16 µM (active); in assay [6], 37.1 µM (active); in assay [7], 5.72 µM (active).
